Values of other authors in paper PMC8445767 (Bioorganic Chemistry, 2021).
Like-named read-outs stand apart in the source and are kept apart here.

What was measured:
[1] = test system: herpes simplex virus type 1; settings: read-out: IC50 against herpes simplex virus type 1
[2] = test system: herpes simplex virus type 1; settings: read-out: IC50 against herpes simplex virus type 1; remark: listed apart in the source

Substance	IC50 [1]	IC50 [2]
Aspergilli peptide D [XI]	9.5 µM	
Simplicilliumtide J [XIV]		14 µM
